According to article PMC3748009, “Novel Small-Molecule AMP-Activated Protein Kinase Allosteric Activator with Beneficial Effects in db/db Mice” (PLoS ONE, 2013):

Experiments:
HeLa cells = assay: AMPK and ACC phosphorylation in HeLa cells deficient in LKB1; assay type: cell-based
Description: (§1) These assays were described previously, [25].

human AMPK α1(1–312) = molecular target: T1, human AMPK α1(1–312) (Homo sapiens, UniProt Q13131); assay: SPA, constitutively active kinase domain; assay type: biochemical; details: various concentrations
T1 construct: the constitutively active kinase domain (KD) α1(1–312) in SPA assay; made in house
Description: (§2) Before the SPA assay, 200 nmol/l recombinant AMPK protein (α1β1γ1, α2β1γ1, α1β2γ1, α2β2γ1, α1(1–394), α1(1–335), α1(1–312)) was constructed, expressed, purified and fully phosphorylated as described previously. The SPA reactions were performed in 96-well plates in a final volume of 50 µl containing 20 mmol/l Tris-HCl, pH 7.5, 5 mmol/l MgCl2, 1 mmol/l DTT, 2 µmol/l biotin-SAMS, 2 µmol/l ATP and 7.4×10^3 Bq/well [γ-^33P]ATP. The reactions were initiated by the addition of 50 nmol/l recombinant AMPK protein to the reaction solutions, followed by incubation at 30°C for 2 hr. The reactions were then terminated by the addition of 40 µl of stop solution containing 80 µg streptavidin-coated SPA beads per well, 50 mmol/l EDTA and 0.1% Triton X-100 in PBS, pH 7.5, followed by incubation for 1 hr. Finally, 160 µl of suspension solution containing 2.4 mol/l CsCl, 50 mmol/l EDTA and 0.1% Triton X-100 in PBS, pH 7.5, was added to the reaction solution to suspend the SPA beads completely. The SPA signals were measured in a Wallac Microbeta plate counter (PerkinElmer, Waltham, MA, USA) 30 min later.

L6 myotubes [1] = assay: Mitochondrial membrane potential in L6 myotubes; assay type: cell-based; details: various concentrations, 3 hr, vs DMSO
Description: as §1

rat primary hepatocytes [2] = assay: AMPK and ACC phosphorylation in rat primary hepatocytes; assay type: cell-based; details: 3 hr
Description: as §1

AMPK α1(1–335) [3] = molecular target: T2, AMPK α1(1–335) (Homo sapiens, UniProt Q13131); assay: SPA, inactive α1 subunit truncation; assay type: biochemical; design: α1(1–394), α1(1–335), α1(1–312); made in house
Description: as §2

AMPK α1(1–394) [4] = molecular target: T3, AMPK α1(1–394) (Homo sapiens, UniProt Q13131); assay: SPA, inactive α1 subunit truncation; assay type: biochemical; design: α1(1–394), α1(1–335), α1(1–312); made in house
Description: as §2

recombinant AMPK α1β1γ1 = recombinant AMPK α1β1γ1 (Homo sapiens, UniProt Q13131); assay: Scintillation proximity assay (SPA), AMPK activation; assay type: biochemical; design: made in house
Description: as §2

AMPK α1β1γ1 = AMPK α1β1γ1 (Homo sapiens, UniProt P54619+Q13131+Q9Y478); assay: as above; assay type: biochemical; design: made in house
Description: as §2

AMPK α1(1–335) [5] = molecular target: T2, AMPK α1(1–335); assay: Dephosphorylation of AMPK α1 truncation by PP2Cα; assay type: biochemical; design: dephosphorylation by PP2Cα on AMPK α1(1–394) and α1(1–335); details: Fig. S1B
Description: (§3) The dephosphorylation of AMPK was performed as described previously, [24].

AMPK α1(1–394) [6] = molecular target: T3, AMPK α1(1–394); assay: Dephosphorylation of AMPK α1 truncation by PP2Cα; assay type: biochemical; design: dephosphorylation by PP2Cα on AMPK α1(1–394) and α1(1–335); details: Fig. S1A
Description: as §3

rat primary hepatocytes [7] = assay: Glucose production (output) in rat primary hepatocytes; assay type: cell-based; details: 5 hr, concentration-dependent
Description: as §1

[8] = molecular target: T4, Recombinant human protein phosphatase-2Cα (PP2Cα) (Homo sapiens, UniProt P35813); assay: PP2Cα activity with pNPP as substrate; assay type: biochemical; details: varying concentrations of ZLN024
T4 construct: purchased Abcam (Cambridge, UK)
T4 sequence (P35813 1-382): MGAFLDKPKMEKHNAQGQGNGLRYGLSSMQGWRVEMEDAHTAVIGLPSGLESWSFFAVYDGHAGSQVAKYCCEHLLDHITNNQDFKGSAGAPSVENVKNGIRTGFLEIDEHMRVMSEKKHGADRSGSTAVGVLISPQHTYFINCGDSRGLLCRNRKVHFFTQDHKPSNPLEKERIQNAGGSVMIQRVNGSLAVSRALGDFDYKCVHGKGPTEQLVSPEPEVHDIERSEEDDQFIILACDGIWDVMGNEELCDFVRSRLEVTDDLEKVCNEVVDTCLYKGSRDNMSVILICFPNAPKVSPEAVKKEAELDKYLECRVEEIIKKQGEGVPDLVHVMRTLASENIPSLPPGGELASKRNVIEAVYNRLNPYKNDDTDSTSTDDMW
Description: Recombinant human protein phosphatase-2Cα (PP2Cα) was obtained from Abcam (Cambridge, UK). PP2Cα activity was measured using pNPP as a substrate. The activity was measured in a SpectraMAX 340 plate reader at 37°C and […] for 120 sec. The assay was carried out in a 96-well plate in a final volume of 100 µl containing 50 mmol/l Tris-HCl, pH 7.6, 2 mmol/l DTT, 10 mmol/l MnCl2 and 10 mmol/l pNPP; the PP2Cα enzyme concentration was 400nmol/l.

rat primary hepatocytes [9] = assay: Gene expression (real-time PCR) in rat primary hepatocytes; assay type: cell-based
Description: This assay was described previously. For details on primer sequences, see Legend for Table S1.

rat primary hepatocytes [10] = assay: ADP/ATP ratio in rat primary hepatocytes; assay type: cell-based; details: 3 hr
Description: as §1

L6 myotubes [11] = assay: Glucose uptake in L6 myotubes; assay type: cell-based; details: 3 hr, concentration-dependent
Description: as §1

rat primary hepatocytes [12] = assay: Fatty acid synthesis ([14C] acetate incorporation) in rat primary hepatocytes; assay type: cell-based; details: insulin 10 nmol/l, 24 hr exposure
Description: Fatty acid synthesis in rat primary hepatocytes was assayed by measuring [^14C] acetate incorporation into lipids. Rat hepatocytes were treated for 20 hr with ZLN024 at the concentrations described in FBS-free DMEM with or without 10 nmol/l insulin, followed by 4 hr incubation in fresh medium containing 0.1 µCi/ml sodium [^14C] acetate (3.7×103 Bq/ml). Thereafter, cells were washed three times by ice-cold PBS and analyzed as previously described, [22].

[13] = primary hepatocytes, 21 hr incubation

T2 sequence (Q13131 10-344): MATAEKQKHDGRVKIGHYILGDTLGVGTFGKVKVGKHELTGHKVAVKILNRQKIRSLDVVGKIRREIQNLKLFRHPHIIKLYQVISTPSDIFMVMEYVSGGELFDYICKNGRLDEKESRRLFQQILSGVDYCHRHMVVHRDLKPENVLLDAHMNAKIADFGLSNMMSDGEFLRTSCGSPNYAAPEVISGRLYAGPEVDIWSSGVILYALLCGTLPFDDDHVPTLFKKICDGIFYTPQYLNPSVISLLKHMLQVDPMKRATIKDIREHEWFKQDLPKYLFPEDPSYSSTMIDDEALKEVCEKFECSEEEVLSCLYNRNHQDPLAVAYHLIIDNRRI
T3 sequence (Q13131 10-403): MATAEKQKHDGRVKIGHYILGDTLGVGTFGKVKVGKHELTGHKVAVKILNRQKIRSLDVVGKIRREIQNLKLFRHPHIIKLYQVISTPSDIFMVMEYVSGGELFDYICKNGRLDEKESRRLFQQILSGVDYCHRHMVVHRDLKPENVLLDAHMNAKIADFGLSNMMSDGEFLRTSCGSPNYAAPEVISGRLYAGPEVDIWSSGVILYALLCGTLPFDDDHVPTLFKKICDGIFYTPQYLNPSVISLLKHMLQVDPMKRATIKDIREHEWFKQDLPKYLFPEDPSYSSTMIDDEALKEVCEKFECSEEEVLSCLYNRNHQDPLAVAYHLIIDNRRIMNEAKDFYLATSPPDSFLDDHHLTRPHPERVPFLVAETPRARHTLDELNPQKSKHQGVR
recombinant AMPK α1β1γ1, sequence (Q13131 10-559 limits assumed): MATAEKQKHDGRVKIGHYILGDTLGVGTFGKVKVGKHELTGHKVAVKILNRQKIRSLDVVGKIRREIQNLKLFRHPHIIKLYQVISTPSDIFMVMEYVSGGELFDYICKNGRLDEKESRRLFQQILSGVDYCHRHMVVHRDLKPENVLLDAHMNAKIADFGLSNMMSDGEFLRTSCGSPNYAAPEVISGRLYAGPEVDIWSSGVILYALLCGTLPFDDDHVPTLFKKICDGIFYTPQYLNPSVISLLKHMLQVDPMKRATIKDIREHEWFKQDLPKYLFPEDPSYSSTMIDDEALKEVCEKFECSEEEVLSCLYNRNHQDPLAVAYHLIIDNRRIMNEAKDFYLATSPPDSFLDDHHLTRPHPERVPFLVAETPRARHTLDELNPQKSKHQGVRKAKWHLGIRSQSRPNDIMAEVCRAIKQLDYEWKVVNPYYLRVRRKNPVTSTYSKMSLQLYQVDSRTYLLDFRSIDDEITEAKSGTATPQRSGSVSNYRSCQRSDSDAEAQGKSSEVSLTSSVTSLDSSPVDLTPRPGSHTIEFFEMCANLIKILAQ
recombinant AMPK α1β1γ1, sequence (Q9Y478 whole entry partner): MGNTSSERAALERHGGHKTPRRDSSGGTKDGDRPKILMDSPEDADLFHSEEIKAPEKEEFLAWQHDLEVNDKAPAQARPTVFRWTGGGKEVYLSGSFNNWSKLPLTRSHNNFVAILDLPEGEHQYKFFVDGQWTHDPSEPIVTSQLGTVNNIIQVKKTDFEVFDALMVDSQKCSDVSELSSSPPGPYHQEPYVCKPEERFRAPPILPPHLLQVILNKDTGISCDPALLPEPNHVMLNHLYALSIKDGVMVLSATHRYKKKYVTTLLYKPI
recombinant AMPK α1β1γ1, sequence (P54619 whole entry partner): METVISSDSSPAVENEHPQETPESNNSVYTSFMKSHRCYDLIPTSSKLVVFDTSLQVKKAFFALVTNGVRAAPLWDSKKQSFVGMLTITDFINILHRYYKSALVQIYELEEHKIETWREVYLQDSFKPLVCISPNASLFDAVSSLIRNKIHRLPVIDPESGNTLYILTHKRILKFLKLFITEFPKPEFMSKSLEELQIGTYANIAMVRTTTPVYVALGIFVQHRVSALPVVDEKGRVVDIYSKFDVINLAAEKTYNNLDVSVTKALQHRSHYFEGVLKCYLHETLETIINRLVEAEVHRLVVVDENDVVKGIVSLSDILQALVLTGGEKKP
AMPK α1β1γ1, sequence (Q13131 10-559 limits assumed): as the sequence (Q13131 10-559 limits assumed) above
AMPK α1β1γ1, sequence (Q9Y478 whole entry partner): as the sequence (Q9Y478 whole entry partner) above
AMPK α1β1γ1, sequence (P54619 whole entry partner): as the sequence (P54619 whole entry partner) above
T1 sequence (Q13131 10-321): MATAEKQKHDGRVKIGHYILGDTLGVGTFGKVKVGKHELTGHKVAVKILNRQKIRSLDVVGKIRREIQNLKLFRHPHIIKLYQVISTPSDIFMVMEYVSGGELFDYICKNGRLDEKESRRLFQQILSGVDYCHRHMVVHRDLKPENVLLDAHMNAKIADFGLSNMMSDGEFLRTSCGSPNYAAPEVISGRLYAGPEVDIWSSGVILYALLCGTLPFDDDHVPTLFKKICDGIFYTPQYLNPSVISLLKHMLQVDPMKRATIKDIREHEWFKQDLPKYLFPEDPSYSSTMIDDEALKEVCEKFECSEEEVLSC

Cc1ccc(OCCSc2ncccn2)c(Br)c1 [ZLN024]
phosphorylation of AMPK and ACC (HeLa cells; 3 hr, concentration-dependent): stimulated
time to peak of AMPK and ACC phosphorylation (HeLa cells; ZLN024 20 µmol/l): ≤ 30 min
time to start of increase of AMPK and ACC phosphorylation (HeLa cells; ZLN024 20 µmol/l): ≤ 15 min
effect on activity of constitutively active kinase domain α1(1–312) (human AMPK α1(1–312)): did not induce significant changes
mitochondrial membrane potential (MMP) (L6 myotubes [1]): not affected
phosphorylation of ACC (rat primary hepatocytes [2]): obviously increased
phosphorylation of AMPK (rat primary hepatocytes [2]): slightly activated
maximal activation of α1(1–335) (AMPK α1(1–335) [3]): 2.8 fold
EC50 (AMPK α1(1–335) [3]; read-out: EC50, activation of α1(1–335)): 2.23 µM
maximal activation of α1(1–394) (AMPK α1(1–394) [4]): 2.3 fold
EC50 (AMPK α1(1–394) [4]; read-out: EC50, activation of α1(1–394)): 0.92 µM
activation of α1β1γ1 activity (recombinant AMPK α1β1γ1): 1.5 fold
EC50 (AMPK α1β1γ1): 0.42 µM
effect on dephosphorylation of AMPK α1(1–335) by PP2Cα (AMPK α1(1–335) [5]): did not affect the dephosphorylation
effect on dephosphorylation of AMPK α1(1–394) by PP2Cα (AMPK α1(1–394) [6]): did not affect the dephosphorylation
glucose production (rat primary hepatocytes [7]): obviously repressed
effect on PP2Cα activity [8]: no significant inhibition
mRNA level of G6Pase (rat primary hepatocytes [9]; [13]): decreased significantly
mRNA level of PEPCK (rat primary hepatocytes [9]; [13]): decreased significantly
gene expression of fatty acid synthase (FAS) (rat primary hepatocytes [9]; rat primary hepatocytes, 21 hr): significantly decreased
ADP/ATP ratio (rat primary hepatocytes [10]): not affected
glucose uptake (L6 myotubes [11]): stimulated
insulin stimulated synthesis of fatty acid (rat primary hepatocytes [12]): significantly decreased
